Results: paper PMC3371024, “A Novel 5-Enolpyruvylshikimate-3-Phosphate Synthase Shows High Glyphosate Tolerance in Escherichia coli and Tobacco Plants” (PLoS ONE, 2012)

Legend:
AM79 EPSPS [1] = system: T1, AM79 EPSPS; experiment: Pi release (Lanzetta reagent, […] nm); Michaelis-Menten fit; assay type: biochemical, uncultured soil bacterium; details: 1 mM S3P, no glyphosate, 50 mM HEPES-NaOH pH 7.0, 100 mM KCl, 2 mM DTT, 25 °C; read-out: K m (PEP; μM)
T1 construct: gene aroA; aroA in pET-28a, stop codon removed so two His tags (N- and C-terminal), E. coli Rosetta (DE3), Ni-NTA purified; printed residues Ala107, Phe114, Ala355, His356, Glu357

G2 EPSPS = biological target: T2, G2 EPSPS (Pseudomonas fluorescens, UniProt A1Z0H6); experiment: Pi release (Lanzetta reagent, […] nm); Km(obs) of PEP versus glyphosate; assay type: biochemical; details: 1 mM S3P, varied PEP, 50 mM HEPES-NaOH pH 7.0, 100 mM KCl, 2 mM DTT, 25 °C; competitive with PEP; read-out: K i (glyphosate; μM)
T2 construct: gene aroA

A1501 EPSPS = biological target: T3, A1501 EPSPS (Stutzerimonas stutzeri, UniProt A4VLZ3); experiment: as above; assay type: biochemical; details: 1 mM S3P, varied PEP, 50 mM HEPES-NaOH pH 7.0, 100 mM KCl, 2 mM DTT, 25 °C; competitive with PEP; read-out: K i (glyphosate; μM)
T3 construct: gene aroA

AM79 EPSPS [2] = biological target: T1, AM79 EPSPS; experiment: as above; assay type: biochemical, uncultured soil bacterium; details: 1 mM S3P, varied PEP, 50 mM HEPES-NaOH pH 7.0, 100 mM KCl, 2 mM DTT, 25 °C; competitive with PEP; read-out: K i (glyphosate; μM)

SMILES	Km (AM79 EPSPS [1]) [µM]	Ki (G2 EPSPS) [µM]	Ki (A1501 EPSPS) [µM]	Ki (AM79 EPSPS [2]) [µM]
C=C(OP(=O)(O)O)C(=O)O [PEP]	14.59 ± 0.11	–	–	–
O=C(O)CNCP(=O)(O)O [glyphosate, N-phosphonomethyl glycine]	–	44.7 ± 5.2	467 ± 30.2	154 ± 4.06
